In patent publication US20260028326A1, “COMPOUND BASED ON ISOINDOLINE-SUBSTITUTED GLUTARIMIDE BACKBONE AND USE THEREOF” (GLUETACS THERAPEUTICS (SHANGHAI) CO., LTD., priority 2022, published 2026):

Target: human Cereblon WT GST-tagged protein (Homo sapiens (Human), UniProt Q96SW2)
Experiment: CRBN-binding affinity, HTRF (CEREBLON BINDING kit)
How it was run: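 GST-tagged human WT Cereblon incubated with compound, then Thalidomide-Re tracer and anti-GST Eu antibody added. Displacement read by HTRF, reported as CRBN binding inhibition rate against blank control wells without protein.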

Sequence of human Cereblon WT GST-tagged protein (Q96SW2 whole entry): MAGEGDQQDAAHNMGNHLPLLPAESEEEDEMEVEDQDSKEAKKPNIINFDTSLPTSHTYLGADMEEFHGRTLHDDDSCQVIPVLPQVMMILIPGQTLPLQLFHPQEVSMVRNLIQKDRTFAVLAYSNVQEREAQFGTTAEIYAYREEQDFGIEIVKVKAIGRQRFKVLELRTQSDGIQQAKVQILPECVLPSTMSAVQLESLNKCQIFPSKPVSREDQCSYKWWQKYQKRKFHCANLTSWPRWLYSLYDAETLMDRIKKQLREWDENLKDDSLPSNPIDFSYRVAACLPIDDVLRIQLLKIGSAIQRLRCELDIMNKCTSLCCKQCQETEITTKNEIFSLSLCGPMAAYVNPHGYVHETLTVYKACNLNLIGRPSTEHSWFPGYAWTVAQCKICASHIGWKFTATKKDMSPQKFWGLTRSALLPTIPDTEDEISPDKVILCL

IC50 [nM]	Structure (SMILES)
1090	CC1(C)CCC(C(=O)N2CC3CCC2CN3C(=O)c2ccc3c(c2)CN(C2CCC(=O)NC2=O)C3=O)=C(c2ccc(Cl)cc2)C1 (stereo not drawn) [GT-05663, 3-(5-(5-(4′-chloro-5,5-dimethyl-3,4,5,6-tetrahydro-[1,1′-biphenyl]-2-carbonyl)-2,5-diazabicyclo[2.2.2]octane-2-carbonyl)-1-oxoisoindolin-2-yl)piperidine-2,6-dione]
1140	CC1(C)CC(c2ccc(Cl)cc2)=C(CN2CCN(C(=O)c3ccc4c(c3)CN(C3CCC(=O)NC3=O)C4=O)CC2)CO1 (stereo not drawn) [GT-05673, 3-(5-(4-((4-(4-chlorophenyl)-6,6-dimethyl-5,6-dihydro-2H-pyran-3-yl)methyl)piperazine-1-carbonyl)-1-oxoisoindolin-2-yl)piperidine-2,6-dione]
570	CC1(C)CCC(C(=O)N2CC3(C2)CN(C(=O)c2ccc4c(c2)CN(C2CCC(=O)NC2=O)C4=O)C3)=C(c2ccc(Cl)cc2)C1 (stereo not drawn) [GT-05682, 3-(5-(6-(4′-chloro-5,5-dimethyl-3,4,5,6-tetrahydro-[1,1′-biphenyl]-2-carbonyl)-2,6-diazaspiro[3.3]heptane-2-carbonyl)-1-oxoisoindolin-2-yl)piperidine-2,6-dione]
1220	O=C1CCC(N2Cc3cc(CN4CCN(C(=O)c5ccccc5-c5ccc(Cl)cc5)CC4)cc(F)c3C2=O)C(=O)N1 (stereo not drawn) [GT-05700, 3-(5-((4-(4′-chloro-[1,1′-biphenyl]-2-carbonyl)piperazin-1-yl)methyl)-7-fluoro-1-oxoisoindolin-2-yl)piperidine-2,6-dione]
1800	O=C1CCC(N2Cc3c(CN4CCN(C(=O)c5ccccc5-c5ccc(Cl)cc5)CC4)cccc3C2=O)C(=O)N1 (stereo not drawn) [GT-05701, 3-(4-((4-(4′-chloro-[1,1′-biphenyl]-2-carbonyl)piperazin-1-yl)methyl)-1-oxoisoindolin-2-yl)piperidine-2,6-dione]
710	O=C1CCC(N2Cc3cc(CN4CC5CC4CN5Cc4ccccc4-c4ccc(Cl)cc4)ccc3C2=O)C(=O)N1 (stereo not drawn) [GT-05707, 3-(5-((5-((4′-chloro-[1,1′-biphenyl]-2-yl)methyl)-2,5-diazabicyclo[2.2.1]heptan-2-yl)methyl)-1-oxoisoindolin-2-yl)piperidine-2,6-dione]
550	O=C1CCC(N2Cc3cc(CN4CC5(C4)CN(C(=O)c4ccccc4-c4ccc(Cl)cc4)C5)ccc3C2=O)C(=O)N1 (stereo not drawn) [GT-05708, 3-(5-((6-(4′-chloro-[1,1′-biphenyl]-2-carbonyl)-2,6-diazaspiro[3.3]heptan-2-yl)methyl)-1-oxoisoindolin-2-yl)piperidine-2,6-dione]
1650	O=C1CCC(N2C(=O)c3ccc(CN4CCN(Cc5ccncc5-c5ccc(Cl)cc5)CC4)cc3C2=O)C(=O)N1 (stereo not drawn) [GT-05731, 5-((4-((3-(4-chlorophenyl)pyridin-4-yl)methyl)piperazin-1-yl)methyl)-2-(2,6-dioxopiperidin-3-yl)isoindoline-1,3-dione]
420	O=C1CCC(N2Cc3cc(CN4CC5CC4CN5C(=O)c4ccccc4-c4ccc(Cl)cc4)ccc3C2=O)C(=O)N1 (stereo not drawn) [GT-05776, 3-(5-((5-(4′-chloro-[1,1′-biphenyl]-2-carbonyl)-2,5-diazabicyclo[2.2.1]heptan-2-yl)methyl)-1-oxoisoindolin-2-yl)piperidine-2,6-dione]
710	CC1(C)CCC(CN2CC3CCC2CN3Cc2cc(F)c3c(c2)CN(C2CCC(=O)NC2=O)C3=O)=C(c2ccc(Cl)cc2)C1 (stereo not drawn) [GT-05781, 3-(5-((5-((4′-chloro-5,5-dimethyl-3,4,5,6-tetrahydro-[1,1′-biphenyl]-2-yl)methyl)-2,5-diazabicyclo[2.2.2]octan-2-yl)methyl)-7-fluoro-1-oxoisoindolin-2-yl)piperidine-2,6-dione]
1760	CC1(C)CCC(CN2CCC(Nc3ccc4c(c3)CN(C3CCC(=O)NC3=O)C4=O)CC2)=C(c2ccc(Cl)cc2)C1 (stereo not drawn) [GT-05782, 3-(5-((1-((4′-chloro-5,5-dimethyl-3,4,5,6-tetrahydro-[1,1′-biphenyl]-2-yl)methyl)piperidin-4-yl)amino)-1-oxoisoindolin-2-yl)piperidine-2,6-dione]
940	CC1(C)CCC(C(=O)N2CCC(Nc3ccc4c(c3)CN(C3CCC(=O)NC3=O)C4=O)CC2)=C(c2ccc(Cl)cc2)C1 (stereo not drawn) [GT-05783, 3-(5-((1-(4′-chloro-5,5-dimethyl-3,4,5,6-tetrahydro-[1,1′-biphenyl]-2-carbonyl)piperidin-4-yl)amino)-1-oxoisoindolin-2-yl)piperidine-2,6-dione]
1250	CC1(C)CCC(CN2CCC(Nc3ccc4c(c3)CN(C3CCC(=O)NC3=O)C4=O)CC2)=C(c2ccc(F)cc2)C1 (stereo not drawn) [GT-05785, 3-(5-((1-((4′-fluoro-5,5-dimethyl-3,4,5,6-tetrahydro-[1,1′-biphenyl]-2-yl)methyl)piperidin-4-yl)amino)-1-oxoisoindolin-2-yl)piperidine-2,6-dione]
1070	CC1(C)CCC(C(=O)N2CCC(Nc3ccc4c(c3)CN(C3CCC(=O)NC3=O)C4=O)CC2)=C(c2ccc(F)cc2)C1 (stereo not drawn) [GT-05786, 3-(5-((1-(4′-fluoro-5,5-dimethyl-3,4,5,6-tetrahydro-[1,1′-biphenyl]-2-carbonyl)piperidin-4-yl)amino)-1-oxoisoindolin-2-yl)piperidine-2,6-dione]
940	CC1(C)CCC(CN2CC3CCC2CN3C(=O)c2ccc3c(c2)CN(C2CCC(=O)NC2=O)C3=O)=C(c2ccc(Cl)cc2)C1 (stereo not drawn) [GT-05795, 3-(5-(5-((4′-chloro-5,5-dimethyl-3,4,5,6-tetrahydro-[1,1′-biphenyl]-2-yl)methyl)-2,5-diazabicyclo[2.2.2]octane-2-carbonyl)-1-oxoisoindolin-2-yl)piperidine-2,6-dione]
1290	O=C1CCC(N2Cc3c(CN4CCN(CC5=C(c6ccc(F)cc6)CCCC5)CC4)cccc3C2=O)C(=O)N1 (stereo not drawn) [GT-05861, 3-(4-((4-((4′-fluoro-3,4,5,6-tetrahydro-[1,1′-biphenyl]-2-yl)methyl)piperazin-1-yl)methyl)-1-oxoisoindolin-2-yl)piperidine-2,6-dione]
1020	O=C1CCC(N2Cc3cc(C(=O)N4CCN(CC5=C(c6ccc(F)cc6)CCCC5)CC4)ccc3C2=O)C(=O)N1 (stereo not drawn) [GT-05863, 3-(5-(4-((4′-fluoro-3,4,5,6-tetrahydro-[1,1′-biphenyl]-2-yl)methyl)piperazine-1-carbonyl)-1-oxoisoindolin-2-yl)piperidine-2,6-dione]
440	O=C1CCC(N2Cc3cc(-c4ccc(CN5CCN(C(=O)c6ccccc6-c6ccc(Cl)cc6)CC5)cc4)ccc3C2=O)C(=O)N1 (stereo not drawn) [GT-05874, 3-(5-(4-((4-(4′-chloro-[1,1′-biphenyl]-2-carbonyl)piperazin-1-yl)methyl)phenyl)-1-oxoisoindolin-2-yl)piperidine-2,6-dione]

Structure (SMILES)	IC50 [nM]
CC1(C)CCC(C(=O)N2C3CC2CN(Cc2ccc4c(c2)CN(C2CCC(=O)NC2=O)C4=O)C3)=C(c2ccc(Cl)cc2)C1 (stereo not drawn) [GT-05660, 3-(5-((6-(4′-chloro-5,5-dimethyl-3,4,5,6-tetrahydro-[1,1′-biphenyl]-2-carbonyl)-3,6-diazabicyclo[3.1.1]heptan-3-yl)methyl)-1-oxoisoindolin-2-yl)piperidine-2,6-dione]	1040
CC1(C)CCC(C(=O)N2C3CC2CN(C(=O)c2ccc4c(c2)CN(C2CCC(=O)NC2=O)C4=O)C3)=C(c2ccc(Cl)cc2)C1 (stereo not drawn) [GT-05661, 3-(5-(6-(4′-chloro-5,5-dimethyl-3,4,5,6-tetrahydro-[1,1′-biphenyl]-2-carbonyl)-3,6-diazabicyclo[3.1.1]heptane-3-carbonyl)-1-oxoisoindolin-2-yl)piperidine-2,6-dione]	960
O=C1CCC(N2Cc3c(ccc(CN4C5CC4CN(C(=O)c4ccccc4-c4ccc(Cl)cc4)C5)c3F)C2=O)C(=O)N1 (stereo not drawn) [GT-05666, 3-(5-((3-(4′-chloro-[1,1′-biphenyl]-2-carbonyl)-3,6-diazabicyclo[3.1.1]heptan-6-yl)methyl)-4-fluoro-1-oxoisoindolin-2-yl)piperidine-2,6-dione]	690
O=C1CCC(N2Cc3cc(CN4C5CC4CN(C(=O)c4ccccc4-c4ccc(Cl)cc4)C5)c(F)cc3C2=O)C(=O)N1 (stereo not drawn) [GT-05667, 3-(5-((3-(4′-chloro-[1,1′-biphenyl]-2-carbonyl)-3,6-diazabicyclo[3.1.1]heptan-6-yl)methyl)-6-fluoro-1-oxoisoindolin-2-yl)piperidine-2,6-dione]	750
O=C1CCC(N2Cc3cc(CN4C5CC4CN(C(=O)c4ccccc4-c4ccc(Cl)cc4)C5)cc(F)c3C2=O)C(=O)N1 (stereo not drawn) [GT-05668, 3-(5-((3-(4′-chloro-[1,1′-biphenyl]-2-carbonyl)-3,6-diazabicyclo[3.1.1]heptan-6-yl)methyl)-7-fluoro-1-oxoisoindolin-2-yl)piperidine-2,6-dione]	650
O=C1CCC(N2Cc3cc(CN4CC5CC(C4)N5C(=O)c4ccccc4-c4ccc(Cl)cc4)ccc3C2=O)C(=O)N1 (stereo not drawn) [GT-05669, 3-(5-((6-(4′-chloro-[1,1′-biphenyl]-2-carbonyl)-3,6-diazabicyclo[3.1.1]heptan-3-yl)methyl)-1-oxoisoindolin-2-yl)piperidine-2,6-dione]	630
CC1(C)CCC(CN2C3CC2CN(C(=O)c2ccc4c(c2)CN(C2CCC(=O)NC2=O)C4=O)C3)=C(c2ccc(F)cc2)C1 (stereo not drawn) [GT-05671, 3-(5-(6-((4′-fluoro-5,5-dimethyl-3,4,5,6-tetrahydro-[1,1′-biphenyl]-2-yl)methyl)-3,6-diazabicyclo[3.1.1]heptane-3-carbonyl)-1-oxoisoindolin-2-yl)piperidine-2,6-dione]	300
O=C1CCC(N2Cc3cc(CN4CC5CC(C4)N5Cc4ccccc4-c4ccc(Cl)cc4)ccc3C2=O)C(=O)N1 (stereo not drawn) [GT-05704, 3-(5-((6-((4′-chloro-[1,1′-biphenyl]-2-yl)methyl)-3,6-diazabicyclo[3.1.1]heptan-3-yl)methyl)-1-oxoisoindolin-2-yl)piperidine-2,6-dione]	680
O=C1CCC(N2Cc3cc(C(=O)N4CC5CC(C4)N5Cc4ccccc4-c4ccc(Cl)cc4)ccc3C2=O)C(=O)N1 (stereo not drawn) [GT-05705, 3-(5-(6-((4′-chloro-[1,1′-biphenyl]-2-yl)methyl)-3,6-diazabicyclo[3.1.1]heptane-3-carbonyl)-1-oxoisoindolin-2-yl)piperidine-2,6-dione]	880
